Laboratory results published in doi:10.1101/2021.09.28.462164v1 (biorxiv, 2021).
Where a chain is given by its changes, count along the chain named.

What was measured:
Format in all cases: cell-based
Conditions in all cases: 30 C; extract in 50 mM Tris-HCl pH 7.5; described as competitive inhibitor
HsHK1 [1] = target: T1, HsHK1 (Homo sapiens, UniProt P19367)
T1 sequence (P19367 1-917): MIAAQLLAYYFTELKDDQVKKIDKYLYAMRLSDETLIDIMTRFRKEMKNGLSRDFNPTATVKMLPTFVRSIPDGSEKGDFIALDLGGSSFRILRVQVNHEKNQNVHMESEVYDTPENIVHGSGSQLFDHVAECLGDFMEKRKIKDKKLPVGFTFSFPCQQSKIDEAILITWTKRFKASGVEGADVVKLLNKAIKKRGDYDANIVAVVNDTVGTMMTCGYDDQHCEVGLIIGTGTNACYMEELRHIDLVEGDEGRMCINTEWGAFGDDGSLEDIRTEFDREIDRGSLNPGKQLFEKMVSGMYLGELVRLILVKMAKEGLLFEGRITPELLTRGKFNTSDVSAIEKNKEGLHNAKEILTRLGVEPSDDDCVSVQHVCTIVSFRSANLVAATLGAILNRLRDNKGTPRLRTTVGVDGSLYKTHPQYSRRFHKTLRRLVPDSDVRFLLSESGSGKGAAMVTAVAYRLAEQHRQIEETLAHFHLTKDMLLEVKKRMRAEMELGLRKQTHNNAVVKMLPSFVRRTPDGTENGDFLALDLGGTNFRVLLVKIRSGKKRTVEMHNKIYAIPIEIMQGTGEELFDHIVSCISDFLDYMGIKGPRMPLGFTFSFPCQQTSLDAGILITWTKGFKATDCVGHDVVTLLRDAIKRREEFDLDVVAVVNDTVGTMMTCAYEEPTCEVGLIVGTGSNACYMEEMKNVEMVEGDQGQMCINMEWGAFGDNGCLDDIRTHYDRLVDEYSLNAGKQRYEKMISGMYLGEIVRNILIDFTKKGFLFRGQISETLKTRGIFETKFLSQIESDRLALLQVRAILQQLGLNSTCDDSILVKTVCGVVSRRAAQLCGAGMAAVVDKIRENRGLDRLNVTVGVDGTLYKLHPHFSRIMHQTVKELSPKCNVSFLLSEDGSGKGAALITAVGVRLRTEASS

HsHK2 [2] = target: T2, HsHK2 (Homo sapiens, UniProt P52789)
T2 sequence (P52789 1-917): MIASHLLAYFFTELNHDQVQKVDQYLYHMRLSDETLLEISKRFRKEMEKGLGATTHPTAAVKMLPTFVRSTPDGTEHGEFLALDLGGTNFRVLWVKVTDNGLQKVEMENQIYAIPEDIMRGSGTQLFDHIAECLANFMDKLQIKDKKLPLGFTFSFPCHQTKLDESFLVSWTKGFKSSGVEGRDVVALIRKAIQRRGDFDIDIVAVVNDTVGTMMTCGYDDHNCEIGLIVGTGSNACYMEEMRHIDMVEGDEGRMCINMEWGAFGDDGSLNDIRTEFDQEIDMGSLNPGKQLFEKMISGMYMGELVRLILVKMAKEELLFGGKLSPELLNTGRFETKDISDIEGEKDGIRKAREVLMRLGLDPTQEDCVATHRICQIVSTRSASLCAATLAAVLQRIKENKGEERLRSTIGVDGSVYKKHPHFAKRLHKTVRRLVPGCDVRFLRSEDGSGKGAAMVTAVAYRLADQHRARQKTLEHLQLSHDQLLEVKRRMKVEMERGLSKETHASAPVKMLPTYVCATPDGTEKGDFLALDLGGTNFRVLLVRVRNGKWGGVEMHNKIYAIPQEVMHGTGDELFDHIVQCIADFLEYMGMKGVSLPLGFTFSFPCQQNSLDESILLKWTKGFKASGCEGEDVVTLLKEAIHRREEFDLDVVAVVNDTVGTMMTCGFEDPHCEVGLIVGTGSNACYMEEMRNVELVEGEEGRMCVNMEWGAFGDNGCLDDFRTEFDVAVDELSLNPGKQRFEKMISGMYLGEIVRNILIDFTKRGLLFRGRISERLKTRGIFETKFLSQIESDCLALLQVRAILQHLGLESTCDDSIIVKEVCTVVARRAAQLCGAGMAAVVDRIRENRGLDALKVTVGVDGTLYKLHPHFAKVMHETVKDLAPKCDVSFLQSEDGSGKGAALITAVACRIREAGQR

HsHK2 [3] = target: T3, HsHK2 (Homo sapiens, UniProt P52789, L776F)
T3 sequence (P52789 1-917 L776F): T2 sequence (P52789 1-917) with L776F

HsHK1 [4] = target: T4, HsHK1 (Homo sapiens, UniProt P19367, G679A)
T4 sequence (P19367 1-917 G679A): T1 sequence (P19367 1-917) with G679A

O=P(O)(O)OC[C@H]1OC(O)[C@H](O)[C@@H](O)[C@@H]1O (stereo partly shown) [glucose-6-phosphate]
IC50 (HsHK1 [1]): 38 ± 15 µM | IC50 (HsHK2 [2]): 87 ± 21 µM | IC50 (HsHK2 [3]): 260 ± 200 µM | IC50 (HsHK1 [4]): 320 ± 100 µM
